# Laboratory results: the Kinase Knowledgebase extract (Sharma et al. 2016)
# Target: EGFR (Hamster) (UniProt P00533)
# Settings: er22, dose or concentration not given here
# Sequence of EGFR (Hamster) (P00533 whole entry, looked up): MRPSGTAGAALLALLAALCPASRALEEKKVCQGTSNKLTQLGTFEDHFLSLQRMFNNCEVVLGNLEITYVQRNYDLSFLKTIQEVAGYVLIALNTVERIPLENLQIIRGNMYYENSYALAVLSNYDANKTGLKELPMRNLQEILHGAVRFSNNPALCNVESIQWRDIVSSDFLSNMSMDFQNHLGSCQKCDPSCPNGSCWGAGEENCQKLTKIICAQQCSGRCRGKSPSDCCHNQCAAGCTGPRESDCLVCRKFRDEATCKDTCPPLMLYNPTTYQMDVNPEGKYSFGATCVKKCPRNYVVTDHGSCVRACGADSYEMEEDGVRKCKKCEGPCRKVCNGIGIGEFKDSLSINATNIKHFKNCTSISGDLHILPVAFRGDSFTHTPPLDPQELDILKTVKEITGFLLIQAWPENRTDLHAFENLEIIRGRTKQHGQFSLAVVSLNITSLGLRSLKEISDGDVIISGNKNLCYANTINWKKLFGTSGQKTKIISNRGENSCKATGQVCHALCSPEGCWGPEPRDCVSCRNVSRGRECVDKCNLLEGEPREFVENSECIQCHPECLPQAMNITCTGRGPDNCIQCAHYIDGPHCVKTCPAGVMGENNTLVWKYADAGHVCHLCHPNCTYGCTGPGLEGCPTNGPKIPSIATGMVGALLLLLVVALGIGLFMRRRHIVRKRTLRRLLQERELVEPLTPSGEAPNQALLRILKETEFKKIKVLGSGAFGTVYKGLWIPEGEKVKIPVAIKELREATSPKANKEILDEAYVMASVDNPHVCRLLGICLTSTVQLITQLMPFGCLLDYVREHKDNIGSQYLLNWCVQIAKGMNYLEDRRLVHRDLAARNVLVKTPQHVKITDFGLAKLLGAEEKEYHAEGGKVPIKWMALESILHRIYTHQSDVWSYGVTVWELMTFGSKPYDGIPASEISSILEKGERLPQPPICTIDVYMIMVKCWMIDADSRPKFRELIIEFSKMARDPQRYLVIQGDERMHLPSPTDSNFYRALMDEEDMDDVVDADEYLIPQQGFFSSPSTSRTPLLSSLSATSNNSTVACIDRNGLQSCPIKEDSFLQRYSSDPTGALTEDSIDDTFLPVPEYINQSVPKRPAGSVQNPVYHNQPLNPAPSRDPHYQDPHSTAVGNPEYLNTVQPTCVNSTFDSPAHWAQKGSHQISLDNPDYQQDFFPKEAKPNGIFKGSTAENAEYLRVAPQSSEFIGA
row,SMILES,inhibition [%]
1,COC(=O)c1ccc(-c2ccc(C(C)(C)C)cc2O)cc1,0
2,CC(C)(C)c1ccc(-c2ccc(C(=O)O)cc2)c(O)c1,0
3,COC(=O)c1ccc(-c2cc(O)cc(C(C)(C)C)c2)cc1,0
4,O=C(NCc1ccccc1)c1ccc(-c2cccc(-c3ccccc3)c2O)cc1,0

# Target: EGFR (UniProt P00533)
# Settings: concentration not given here
# Sequence of EGFR (P00533 whole entry, looked up): as above
row,SMILES,inhibition [%]
1,COCOc1cc(C(C)(C)C)ccc1-c1ccc(C(=O)OC)cc1,0
2,COCOc1cc(-c2ccccc2)ccc1-c1ccc(C(=O)OCC(C)CC(C)(C)C)cc1 (centres undefined),0
3,CC(C)(C)c1ccc(-c2ccc(C(=O)O)cc2)c(O)c1,0

# Other lines, results leading:
row,inhibition [%],SMILES
1,0,O=C(NCc1ccccc1)c1ccc(-c2ccc(-c3ccccc3)cc2O)cc1
2,0,COCOc1cc(C(C)(C)C)ccc1-c1ccc(C(=O)NCc2ccccc2)cc1
3,14,COC(=O)c1ccc(-c2ccc(-c3ccccc3)cc2O)cc1
4,0,COCOc1cc(-c2ccccc2)ccc1-c1ccc(C(=O)NCc2ccccc2)cc1
5,0,CC(C)(C)c1cc(O)cc(-c2ccc(CO)cc2)c1
6,0,CC(C)(C)c1cc(O)cc(-c2ccc(C(=O)NCc3ccccc3)cc2)c1
7,0,O=C(NCc1ccccc1)c1ccc(-c2cccc(-c3ccccc3)c2O)cc1
